Laboratory results published in ChEMBL document CHEMBL1138676, “Liver-selective glucocorticoid antagonists: a novel treatment for type 2 diabetes” (J Med Chem, 2004).
pKi: −log10 of the molar value.

How the values were obtained:
Glucocorticoid receptor [1] = molecular target: T1, Glucocorticoid receptor (Homo sapiens, UniProt P04150); assay: Inhibition of human glucocorticoid receptor
T1 sequence (P04150 whole entry): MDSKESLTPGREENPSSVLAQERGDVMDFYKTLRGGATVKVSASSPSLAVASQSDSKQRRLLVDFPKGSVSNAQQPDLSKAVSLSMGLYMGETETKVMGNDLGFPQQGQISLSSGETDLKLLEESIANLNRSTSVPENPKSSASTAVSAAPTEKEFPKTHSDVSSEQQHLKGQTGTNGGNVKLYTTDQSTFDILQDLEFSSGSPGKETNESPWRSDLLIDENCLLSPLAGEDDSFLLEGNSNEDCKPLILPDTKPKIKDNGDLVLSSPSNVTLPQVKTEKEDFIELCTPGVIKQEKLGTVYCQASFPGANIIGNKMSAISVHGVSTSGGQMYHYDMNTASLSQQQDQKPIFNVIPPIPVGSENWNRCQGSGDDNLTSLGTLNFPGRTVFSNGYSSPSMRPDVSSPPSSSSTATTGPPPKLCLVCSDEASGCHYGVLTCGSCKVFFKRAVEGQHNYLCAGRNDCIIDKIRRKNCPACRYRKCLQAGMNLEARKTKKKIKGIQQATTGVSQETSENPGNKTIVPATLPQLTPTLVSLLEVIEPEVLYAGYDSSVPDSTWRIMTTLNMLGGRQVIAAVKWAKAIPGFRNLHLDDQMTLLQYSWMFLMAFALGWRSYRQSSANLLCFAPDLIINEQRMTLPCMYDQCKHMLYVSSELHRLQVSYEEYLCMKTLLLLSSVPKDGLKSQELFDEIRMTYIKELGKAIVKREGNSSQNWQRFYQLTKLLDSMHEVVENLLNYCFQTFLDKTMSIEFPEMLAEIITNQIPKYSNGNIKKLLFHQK

Progesterone receptor = molecular target: T2, Progesterone receptor (Homo sapiens, UniProt P06401); assay: Inhibition of human progesterone receptor
T2 sequence (P06401 whole entry): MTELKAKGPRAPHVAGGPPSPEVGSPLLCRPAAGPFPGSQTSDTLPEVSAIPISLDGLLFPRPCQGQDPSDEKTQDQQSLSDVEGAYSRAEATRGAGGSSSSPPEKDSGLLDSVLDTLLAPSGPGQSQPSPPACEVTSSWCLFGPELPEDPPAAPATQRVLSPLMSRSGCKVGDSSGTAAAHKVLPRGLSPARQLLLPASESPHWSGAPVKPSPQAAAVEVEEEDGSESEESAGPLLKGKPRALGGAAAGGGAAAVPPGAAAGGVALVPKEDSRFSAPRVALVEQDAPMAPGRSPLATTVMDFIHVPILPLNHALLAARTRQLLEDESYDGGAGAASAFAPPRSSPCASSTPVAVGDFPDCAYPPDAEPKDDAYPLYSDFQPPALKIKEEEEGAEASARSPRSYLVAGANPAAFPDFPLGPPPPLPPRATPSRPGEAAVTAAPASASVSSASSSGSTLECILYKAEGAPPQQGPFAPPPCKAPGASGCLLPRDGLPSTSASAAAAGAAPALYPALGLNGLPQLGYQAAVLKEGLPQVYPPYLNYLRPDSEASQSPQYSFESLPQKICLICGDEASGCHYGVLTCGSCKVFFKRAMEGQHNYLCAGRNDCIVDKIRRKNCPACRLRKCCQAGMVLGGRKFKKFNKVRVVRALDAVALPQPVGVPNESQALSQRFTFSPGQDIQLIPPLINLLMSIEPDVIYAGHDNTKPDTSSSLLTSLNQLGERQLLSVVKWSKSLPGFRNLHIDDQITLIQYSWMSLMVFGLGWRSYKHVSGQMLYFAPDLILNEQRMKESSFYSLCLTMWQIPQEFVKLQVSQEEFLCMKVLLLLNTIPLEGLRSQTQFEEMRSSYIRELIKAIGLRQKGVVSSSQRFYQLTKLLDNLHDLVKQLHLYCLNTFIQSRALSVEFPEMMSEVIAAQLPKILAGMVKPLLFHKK

[2] = molecular target: Glucocorticoid receptor (Rattus norvegicus) (UniProt P06536); assay: Inhibition of glucocorticoid receptor mediated tyrosine amino transferase activity
Chain of Glucocorticoid receptor (Rattus norvegicus) (P06536 whole entry, looked up): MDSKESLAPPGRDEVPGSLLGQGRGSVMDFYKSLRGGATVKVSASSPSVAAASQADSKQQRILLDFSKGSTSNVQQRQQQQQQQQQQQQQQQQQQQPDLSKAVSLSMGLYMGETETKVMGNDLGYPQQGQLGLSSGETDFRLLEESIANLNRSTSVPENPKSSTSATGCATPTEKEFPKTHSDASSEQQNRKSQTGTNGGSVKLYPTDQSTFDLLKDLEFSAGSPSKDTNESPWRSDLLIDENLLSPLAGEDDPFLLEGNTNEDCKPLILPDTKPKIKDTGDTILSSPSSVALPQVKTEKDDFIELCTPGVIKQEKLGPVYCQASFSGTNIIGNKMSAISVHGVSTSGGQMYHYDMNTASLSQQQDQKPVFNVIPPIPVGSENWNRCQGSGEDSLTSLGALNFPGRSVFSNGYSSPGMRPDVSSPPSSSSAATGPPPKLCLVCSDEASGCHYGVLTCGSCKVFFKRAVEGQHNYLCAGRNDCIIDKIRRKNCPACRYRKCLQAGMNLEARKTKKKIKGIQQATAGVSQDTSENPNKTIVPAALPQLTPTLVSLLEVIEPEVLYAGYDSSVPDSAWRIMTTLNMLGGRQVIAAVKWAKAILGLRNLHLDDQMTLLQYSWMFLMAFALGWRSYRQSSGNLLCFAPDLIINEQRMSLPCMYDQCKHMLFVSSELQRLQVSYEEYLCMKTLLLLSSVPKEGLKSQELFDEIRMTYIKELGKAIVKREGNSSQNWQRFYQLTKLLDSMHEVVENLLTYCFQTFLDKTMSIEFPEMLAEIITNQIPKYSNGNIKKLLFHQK

Glucocorticoid receptor [3] = molecular target: T1, Glucocorticoid receptor; assay: Inhibition of glucocorticoid receptor dependent alkaline phosphatase activity; assay type: functional
[4] = molecular target: T3, Thyroid hormone receptor alpha (Homo sapiens, UniProt P10827); assay: Inhibition of human Thyroid hormone receptor alpha
T3 sequence (P10827 whole entry): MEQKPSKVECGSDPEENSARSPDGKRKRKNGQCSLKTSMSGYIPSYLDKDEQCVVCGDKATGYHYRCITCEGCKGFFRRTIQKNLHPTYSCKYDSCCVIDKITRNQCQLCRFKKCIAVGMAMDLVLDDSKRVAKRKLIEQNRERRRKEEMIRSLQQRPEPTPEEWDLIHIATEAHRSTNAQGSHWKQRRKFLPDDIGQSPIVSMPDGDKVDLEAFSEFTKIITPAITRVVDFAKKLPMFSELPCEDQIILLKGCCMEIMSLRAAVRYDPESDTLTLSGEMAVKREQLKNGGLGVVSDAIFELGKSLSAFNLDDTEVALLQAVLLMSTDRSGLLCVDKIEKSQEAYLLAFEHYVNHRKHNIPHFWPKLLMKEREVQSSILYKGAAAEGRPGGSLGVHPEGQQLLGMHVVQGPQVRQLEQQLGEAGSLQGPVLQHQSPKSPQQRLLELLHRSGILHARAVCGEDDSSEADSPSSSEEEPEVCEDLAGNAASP

SMILES	pKi (Glucocorticoid receptor [1])	pKi (Progesterone receptor)	pKi [2]	pKi (Glucocorticoid receptor [3])	pKi [4]
C#C[C@]1(O)CC[C@H]2[C@@H]3CCC4=CC(=O)CCC4=C3[C@@H](c3ccc(N(C)CCCS(=O)(=O)N(C)C4CC[C@@]5(C)[C@@H](C4)C[C@@H](O)[C@@H]4[C@@H]5C[C@H](O)[C@]5(C)[C@@H]([C@H](C)CCC(=O)O)CC[C@@H]45)cc3)C[C@@]21C (some centres not stated)	9.38	8.72	7.22	7.82	–
C#C[C@]1(O)CC[C@H]2[C@@H]3CCC4=CC(=O)CCC4=C3[C@@H](c3ccc(N(C)C(C)=O)cc3)C[C@@]21C	9.40	8.19	–	8.85	6.10
C#C[C@]1(O)CC[C@H]2[C@@H]3CCC4=CC(=O)CCC4=C3[C@@H](c3ccc(N(C)CCOCCO[C@H]4CC[C@@]5(C)[C@@H](C4)C[C@@H](O)[C@@H]4[C@@H]5C[C@H](O)[C@]5(C)[C@@H]([C@H](C)CCC(=O)O)CC[C@@H]45)cc3)C[C@@]21C	9.77	9.32	7.25	8.96	< 5.90
C#C[C@]1(O)CC[C@H]2[C@@H]3CCC4=CC(=O)CCC4=C3[C@@H](c3ccc(N(C)CCCC(=O)N(C)C4CC[C@@]5(C)[C@@H](C4)C[C@@H](O)[C@@H]4[C@@H]5C[C@H](O)[C@]5(C)[C@@H]([C@H](C)CCC(=O)O)CC[C@@H]45)cc3)C[C@@]21C (some centres not stated)	9.57	9.02	7.22	8.92	< 5.90
C#C[C@]1(O)CC[C@H]2[C@@H]3CCC4=CC(=O)CCC4=C3[C@@H](c3ccc(N(C)CCNC(=O)N(C)C4CC[C@@]5(C)[C@@H](C4)C[C@@H](O)[C@@H]4[C@@H]5C[C@H](O)[C@]5(C)[C@@H]([C@H](C)CCC(=O)O)CC[C@@H]45)cc3)C[C@@]21C (some centres not stated)	9.52	8.46	7.47	7.82	< 5.90
C#C[C@]1(O)CC[C@H]2[C@@H]3CCC4=CC(=O)CCC4=C3[C@@H](c3ccc(N(C)CCOC4CC[C@@]5(C)[C@@H](C4)C[C@@H](O)[C@@H]4[C@@H]5C[C@H](O)[C@]5(C)[C@@H]([C@H](C)CCC(=O)NCCS(=O)(=O)O)CC[C@@H]45)cc3)C[C@@]21C (some centres not stated)	9.57	9.28	6.80	7.43	< 5.90
C#C[C@]1(O)CC[C@H]2[C@@H]3CCC4=CC(=O)CCC4=C3[C@@H](c3ccc(N(C)C(=O)CNC(=O)O[C@@H]4C[C@@H]5CC(O)CC[C@]5(C)[C@H]5C[C@H](O)[C@]6(C)[C@@H]([C@H](C)CCC(=O)O)CC[C@H]6[C@H]45)cc3)C[C@@]21C (some centres not stated)	8.96	8.36	6.64	7.31	< 5.90
C#C[C@]1(O)CC[C@H]2[C@@H]3CCC4=CC(=O)CCC4=C3[C@@H](c3ccc(N(C)CCNC(=O)OC4CC[C@@]5(C)[C@@H](C4)C[C@@H](O)[C@@H]4[C@@H]5C[C@H](O)[C@]5(C)[C@@H]([C@H](C)CCC(=O)O)CC[C@@H]45)cc3)C[C@@]21C (some centres not stated)	9.41	9.41	6.48	8.85	< 5.90
C#C[C@]1(O)CC[C@H]2[C@@H]3CCC4=CC(=O)CCC4=C3[C@@H](c3ccc(N(C)CCOC4CC[C@@]5(C)[C@@H](C4)C[C@@H](O)[C@@H]4[C@@H]5C[C@H](O)[C@]5(C)[C@@H]([C@H](C)CCC(=O)O)CC[C@@H]45)cc3)C[C@@]21C (stereo in doubt; form 1)	9.17	8.48	6.66	7.96	< 5.90

Further lines, results first:

pKi (Glucocorticoid receptor [1])	pKi (Progesterone receptor)	pKi [2]	pKi (Glucocorticoid receptor [3])	pKi [4]	SMILES
8.52	8.92	6.46	6.60	5.92	C#C[C@]1(O)CC[C@H]2[C@@H]3CCC4=CC(=O)CCC4=C3[C@@H](c3ccc(N(C)C(=O)CC[C@H](NC(=O)CC[C@@H](C)[C@H]4CC[C@H]5[C@@H]6[C@H](O)C[C@@H]7C[C@H](O)CC[C@]7(C)[C@H]6C[C@H](O)[C@]45C)C(=O)O)cc3)C[C@@]21C
8.68	8.62	6.47	7.30	5.96	C#C[C@]1(O)CC[C@H]2[C@@H]3CCC4=CC(=O)CCC4=C3[C@@H](c3ccc(N(C)C(=O)CNC(=O)OC4CC[C@@]5(C)[C@@H](C4)C[C@@H](O)[C@@H]4[C@@H]5C[C@H](O)[C@]5(C)[C@@H]([C@H](C)CCC(=O)O)CC[C@@H]45)cc3)C[C@@]21C (some centres not stated)
9.10	8.68	6.47	7.28	–	C#C[C@]1(O)CC[C@H]2[C@@H]3CCC4=CC(=O)CCC4=C3[C@@H](c3ccc(N(C)CCC[C@H]4[C@H](O)CC[C@@]5(C)[C@@H]4C[C@@H](O)[C@@H]4[C@@H]5C[C@H](O)[C@]5(C)[C@@H]([C@H](C)CCC(=O)O)CC[C@@H]45)cc3)C[C@@]21C
9.38	9.00	6.74	8.07	< 5.90	C#C[C@]1(O)CC[C@H]2[C@@H]3CCC4=CC(=O)CCC4=C3[C@@H](c3ccc(N(C)CCOC4CC[C@@]5(C)[C@@H](C4)C[C@@H](O)[C@@H]4[C@@H]5C[C@H](O)[C@]5(C)[C@@H]([C@H](C)CCC(=O)NCC(=O)O)CC[C@@H]45)cc3)C[C@@]21C (some centres not stated)
9.57	9.09	7.25	8.96	6.17	C#C[C@]1(O)CC[C@H]2[C@@H]3CCC4=CC(=O)CCC4=C3[C@@H](c3ccc(N(C)CCOC4CC[C@@]5(C)[C@@H](C4)C[C@@H](O)[C@@H]4[C@@H]5C[C@H](O)[C@]5(C)[C@@H]([C@H](C)CCC(=O)O)CC[C@@H]45)cc3)C[C@@]21C (stereo in doubt; form 2)
9.66	8.96	7.00	8.96	< 5.90	C#C[C@]1(O)CC[C@H]2[C@@H]3CCC4=CC(=O)CCC4=C3[C@@H](c3ccc(N(C)CCCOC4CC[C@@]5(C)[C@@H](C4)C[C@@H](O)[C@@H]4[C@@H]5C[C@H](O)[C@]5(C)[C@@H]([C@H](C)CCC(=O)O)CC[C@@H]45)cc3)C[C@@]21C (some centres not stated)
